Patent US6458347B1, “Drug complex” (Asahi Kasei Kabushiki Kaisha, priority 1996, dated 2002)
Read-outs that look alike come from different tables or passages of the source.

How the values were obtained:
[1] = serum, 37° C.; serum species and time not stated
Protocol: Each of compounds (24), (26), (28) and (30) (drug complexes) obtained in Example 8 was dissolved in physiological saline so that the concentration thereof in terms of dexamethasone was 80 μg/ml, to thereby obtain four solutions. 50 μl of each of the above-obtained four solutions was individually added to each of 250 μl of mouse serum and 250 μl of human serum, and the amounts of dexamethasone released from the respective compounds at 37° C. were determined as follows.
The recovery and quantitative analysis of dexamethasone in serum were conducted as follows: 250 μl of phosphate buffer (pH 7.4) was added to […] of each of the sera to which the above-mentioned solution was added, to thereby obtain a mixture. To the obtained mixture was added 3 ml of a solution of hydrocortisone acetate (as an internal standard for the below-mentioned HPLC analysis, the concentration of hydrocortisone acetate: 10 ng/ml) in a mixture of acetonitrile and methanol (acetonitrile/methanol=4/1) and subjected to centrifugation (3,000 rpm, 10 minutes, 4° C.). To 700 μl of the resultant supernatant was added 700 µl of distilled water, to thereby obtain a mixture. The obtained mixture was subjected to filtration with a membrane filter (pore size 0.2 μm), and the resultant filtrate was used as a sample for the quantitative analysis of dexamethasone by HPLC under the following conditions. […]
Column: Asahipak […] C18 (4.6×150 mm)
Column temperature: room temperature
The detected wavelength: 254 nm
Mobile phase: Linear gradient
0 min.: 20% aqueous acetonitrile (20% CH3CN/H2O)
20 min.: 50% aqueous acetonitrile (50% CH3CN/H2O)

[2] = Dissolution in physiological saline; type: physicochemical; conditions: 1 mg in 10 ml of physiological saline
[3] = tested on: B16 melanoma cells; conditions: 50 mg/kg in terms of paclitaxel, intravenous, six days after administration; paclitaxel 50 mg/kg
Protocol: Further, a control solution was prepared by dissolving paclitaxel per se into a mixture of ethanol, Cremophore EL (manufactured and sold by Sigma, U.S.A.) and physiological saline. Thus, four types of solutions, namely, three different types of test sample solutions and one control solution were obtained.
Twenty-eight female C57BL/6 mice (six weeks old) were divided into four groups, each consisting of seven mice, and subsequently, B16 melanoma cells were intradermally transplanted to the groin of each of the mice (5×10^6 cells per mouse). After eight days from the transplantation, the above-mentioned four types of solutions were administered to the transplanted mice at the tails thereof intravenously so that the mice belonging to the same group received the administration of the same type of solution. […] With respect to the control solution, the dose of paclitaxel was 50 mg/kg.
(§1) Separately, a group consisting of thirteen mice, which were transplanted with B16 melanoma cells in the same manner as mentioned above, was provided. Each of the mice of such group received the administration of physiological saline, to thereby obtain a non-treated group of mice.
The tumor volume was determined as follows. The external major and minor diameters (a and b, respectively) (each in mm) of the tumor were measured, and the tumor volume (V) was obtained according to the following formula. [formula]

[4] = tested on: B16 melanoma cells; conditions: 50 mg/kg in terms of paclitaxel, intravenous, six days after administration; paclitaxel 50 mg/kg; remark: listed apart in the source
Protocol: (§2) Further, a control solution was prepared by dissolving paclitaxel per se into a mixture of ethanol, Cremophore EL (manufactured and sold by Sigma, U.S.A.) and physiological saline.
(§3) With respect to the control solution, the dose of paclitaxel was 50 mg/kg.
as §1
(§4) The tumor volume was determined as follows. […] [formula]

[5] = tested on: colon 26 tumor cells; conditions: 50 mg/kg in terms of paclitaxel, intravenous, repeated every 4 days; paclitaxel 50 mg/kg
Protocol: as §2, §3
Each of the mice of such group received the administration of only physiological saline in the same manner as in the case of the administration of the test sample solution, to thereby obtain a non-treated group of mice.
Evaluation was made of the antitumor activity in terms of the change (with the lapse of time) of the average tumor volume (%).
as §4

| Compound | dexamethasone introduced into the compound that was released [1] | antitumor activity (relative average tumor volume) as compared to paclitaxel per se [3] | other results |
| --- | --- | --- | --- |
| CCC(=O)N[C@H](C(=O)OCC(=O)[C@@]1(O)[C@H](C)C[C@H]2[C@@H]3CCC4=CC(=O)C=C[C@]4(C)[C@@]3(F)[C@@H](O)C[C@@]21C)[C@@H](C)CC [compound (24), 21-propanoylisoleucyl-dexamethasone] | ≤ 10% |  |  |
| CCC(=O)NCC(=O)OCC(=O)[C@@]1(O)[C@H](C)C[C@H]2[C@@H]3CCC4=CC(=O)C=C[C@]4(C)[C@@]3(F)[C@@H](O)C[C@@]21C [compound (26), 21-propanoylglycyl-dexamethasone] | approximately 95% |  |  |
| CCC(=O)N[C@@H](C)C(=O)OCC(=O)[C@@]1(O)[C@H](C)C[C@H]2[C@@H]3CCC4=CC(=O)C=C[C@]4(C)[C@@]3(F)[C@@H](O)C[C@@]21C [compound (28), 21-propanoylalanyl-dexamethasone] | approximately 70% |  |  |
| CCC(=O)OCC(=O)[C@@]1(O)[C@H](C)C[C@H]2[C@@H]3CCC4=CC(=O)C=C[C@]4(C)[C@@]3(F)[C@@H](O)C[C@@]21C [compound (30), 21-propanoyl-dexamethasone] | ≥ 98% |  |  |
| CC(=O)O[C@H]1C(=O)[C@@]2(C)[C@H]([C@H](OC(=O)c3ccccc3)[C@]3(O)C[C@H](OC(=O)[C@H](O)[C@@H](NC(=O)c4ccccc4)c4ccccc4)C(C)=C1C3(C)C)[C@]1(OC(C)=O)CO[C@@H]1C[C@@H]2O [paclitaxel] |  |  | dissolution of paclitaxel per se [2]: could not be dissolved completely |
| carboxymethylated dextran-2′-Ala-paclitaxel [compound (7)] |  | excellent |  |
| carboxymethylated dextran-2′-Gly-Gly-Phe-Gly-paclitaxel [compound (33)] |  |  | antitumor activity (relative average tumor volume) as compared to paclitaxel per se [4]: significantly excellent; antitumor activity (change of average tumor volume with time) as compared to paclitaxel per se [5]: significantly excellent |
| carboxymethylated dextran-2′-Gly-paclitaxel [compound (3)] |  | significantly excellent |  |
| carboxymethylated dextran-2′-Ile-paclitaxel [compound (15)] |  | relatively weak |  |
